# Laboratory results published in the supplement of paper PMC10307832.
# How the values were obtained:
# Assay in all cases: relative viability (nuclei count vs DMSO), 5 days (fraction); higher = more cells survive
# VE-821 + Olaparib = compound: CS(=O)(=O)c1ccc(-c2cnc(N)c(C(=O)Nc3ccccc3)n2)cc1 [VE-821] + O=C(c1cc(Cc2n[nH]c(=O)c3ccccc23)ccc1F)N1CCN(C(=O)C2CC2)CC1 [Olaparib] (partner 8 µM)
# In short: (§1)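 Five library-drug doses in √10 steps were combined with a fixed anchor-drug dose, or a single drug was given alone, by pin tool to lung cancer cell lines in 1536-well plates the day after seeding. Nuclei were stained and counted after 5 days. Relative viability is the nuclei count in treated wells over that in vehicle wells, taken as the median of duplicate plates.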
# Vismodegib + Vorinostat = compound: CS(=O)(=O)c1ccc(C(=O)Nc2ccc(Cl)c(-c3ccccn3)c2)c(Cl)c1 [Vismodegib] + O=C(CCCCCCC(=O)Nc1ccccc1)NO [Vorinostat] (partner 1 µM)
# In short: as §1
# VE-821 + Luminespib = compound: CS(=O)(=O)c1ccc(-c2cnc(N)c(C(=O)Nc3ccccc3)n2)cc1 [VE-821] + CCNC(=O)c1noc(-c2cc(C(C)C)c(O)cc2O)c1-c1ccc(CN2CCOCC2)cc1 [Luminespib] (partner 0.01 µM)
# In short: as §1
# VE-821 + Palbociclib = compound: CS(=O)(=O)c1ccc(-c2cnc(N)c(C(=O)Nc3ccccc3)n2)cc1 [VE-821] + CC(=O)c1c(C)c2cnc(Nc3ccc(N4CCNCC4)cn3)nc2n(C2CCCC2)c1=O [Palbociclib] (partner 0.5 µM)
# In short: as §1
cell line,measurement,setting,value
UMC-11,relative viability,VE-821 + Olaparib; first compound 0.08 µM,0.82
same,relative viability,VE-821 + Olaparib; first compound 0.253 µM,0.429
same,relative viability,VE-821 + Olaparib; first compound 0.8 µM,0.374
same,relative viability,VE-821 + Olaparib; first compound 2.53 µM,0.274
same,relative viability,VE-821 + Olaparib; first compound 8 µM,0.208
same,relative viability,Vismodegib + Vorinostat; first compound 0.08 µM,0.392
same,relative viability,Vismodegib + Vorinostat; first compound 0.253 µM,0.373
same,relative viability,Vismodegib + Vorinostat; first compound 0.8 µM,0.415
same,relative viability,Vismodegib + Vorinostat; first compound 2.53 µM,0.35
same,relative viability,Vismodegib + Vorinostat; first compound 8 µM,0.462
same,relative viability,VE-821 + Luminespib; first compound 0.08 µM,1.18
same,relative viability,VE-821 + Luminespib; first compound 0.253 µM,0.966
same,relative viability,VE-821 + Luminespib; first compound 0.8 µM,0.966
same,relative viability,VE-821 + Luminespib; first compound 2.53 µM,1.03
same,relative viability,VE-821 + Luminespib; first compound 8 µM,0.493
same,relative viability,VE-821 + Palbociclib; first compound 0.08 µM,0.339
same,relative viability,VE-821 + Palbociclib; first compound 0.253 µM,0.309
same,relative viability,VE-821 + Palbociclib; first compound 0.8 µM,0.338
same,relative viability,VE-821 + Palbociclib; first compound 2.53 µM,0.377
same,relative viability,VE-821 + Palbociclib; first compound 8 µM,0.299
